Data: US20070243548A1, “Calumenin-directed diagnostics and therapeutics for cancer and chemotherapeutic drug resistance” (priority 2006, published 2007)
Where two headings read alike, the source gives them in different places.

How the values were obtained:
Assay type in all cases: cell-based, human
MCF-7 cells [1] = experiment: cells; details: for fold lower viability to drug treatment as compared to control cells / fold more sensitive to drug: calumenin-depleted MCF-7 cells; for fold lower viability to drug treatment as compared to control cells: FIGS. 6C and 6D; for fold more sensitive to drug: FIGS. 6A and 6B; for IC50: Homo sapiens, MCF7; for IC50 / IC10: MCF-7 cells, determined from MTT experiments
Protocol: (§1) For a typical siRNA transfection, […] of the annealed siRNA duplex was mixed with 1.4 ml of Opti-MEM reagent (Invitrogen). In another tube, […] of Oligofectamine reagent (Invitrogen, Carlsbad, Calif.) was mixed with […] of Opti-MEM. The two solutions were combined and mixed gently by inversion and incubated for 20 min. at RT. The resulting solution was added to the cultured cells drop by drop in a 10 cm dish (cells are approximately 40-50% confluent). The next day the transfected cells were trypsinized and seeded in 6 or 96-well plates and further incubated for the indicated amount of time (assay dependent) before further analysis.
(§2) Cell survival was determined using the MTT cytotoxicity assay (see, e.g., Tokuyama et al. (2005) Anticancer Res. 25(1A): 17-22). Small interfering RNA transfected cells were seeded in triplicate into 96-well plates at 5×10^3 cells/well 48 hrs post-transfection. The cells were incubated for an additional 16 to 24 hrs before they were exposed to increasing concentrations of cytotoxic drugs. Doxorubicin (adriamycin), cisplatin, taxol, vinblastine, vincristine, and mitoxantrone were all purchased from Sigma Corp. (St. Louis, Mo.). Stocks were made as follows: 6 mM for doxorubicin, 1.1 mM for vincristine and vinblastine; 1.1 mM for taxol, 50 mM for cisplatin both in DMSO; and 0.97 mM mitoxantrone in ethanol. Appropriate dilutions were made in the respective media for each cell line. Following addition of drugs, incubation was continued for an additional 72 hrs. […] of MTT dye (5 mg/ml) were added into each well and the plate was further incubated at 37° C. for 4 hrs. The dye was solubilized with 10% Triton X-100, 0.01 N HCl and further incubated at 37° C. in the dark for 30 min. Cell viability was determined by measure of absorption at 570 nm in a Wallac multiwell plate reader (PerkinElmer, Inc., Boston, Mass.). The averages of triplicate wells were plotted using the Prism software (GraphPad Software, Inc., San Diego, Calif.).

[2] = tested on: SKOV3 ovarian adenocarcinoma cell lines; experiment: MTT cytotoxicity assay, calumenin-depleted SKOV3 cells; details: Table 3; calumenin-depleted SKOV3 vs mock siRNA-transfected cells
Protocol: as §1, §2

MCF-7 cells [3] = experiment: cells; details: 72 hours post transfection
[4] = tested on: MDA breast adenocarcinoma cell line; experiment: MTT cytotoxicity assay, calumenin-depleted MDA cells; details: Table 3; calumenin-depleted MDA vs mock siRNA-transfected cells; NC = no change occurred
Protocol: as §1, §2

MCF-7 cells [5] = experiment: Clonogenic assay, siRNA-transfected MCF-7 cells; details: FIG. 7; for cell survival, calumenin-directed siRNA and drug treatment as compared to drug treatment alone: MCF-7, IC10 and IC90 drug concentrations
Protocol: A clonogenic assay generated additional information concerning cell viability after drug-resistant cells were exposed to siRNA and chemotherapeutics. Briefly, transfected MCF-7 cells were seeded in triplicate into 24-well plates at 5×10^3 cells/well 48 hrs post-transfection. The cells were incubated for an additional 16-24 hrs before they were exposed to increasing concentrations of cytotoxic drugs. […] The cells were further incubated for an additional 7 days. At the end of the incubation, the cells were stained with addition of a 0.5% Methylene Blue solution in 50% ethanol for 15 min. at RT. The staining solution was then removed and plates were dried overnight. The plates were scanned and the stained colonies were solubilized in 0.1% SDS. The absorbance of the resulting solution was determined by spectrophotometry at 660 nm. […] The same results were found for cells treated with vincristine and calumenin-directed siRNA as compared to vincristine alone (FIG. 7).

[6] = Table 2, calumenin vs control transfected MCF7 cells
[7] = Table 3, calumenin-depleted MCF-7 vs mock siRNA-transfected cells
[8] = Homo sapiens, MCF7 cells transfected with calumenin-directed siRNA (table: vector expressing calumenin-encoding RNA), read-out: EC50, Calumenin
[9] = Homo sapiens, mock vector transfected MCF7 cells, read-out: EC50, Control
[10] = calumenin depleted MCF-7, IC50 drug treatment level

Structure (SMILES) | EC50 (MCF-7 cells [3]; [8]) [nM] | IC50 (MCF-7 cells [1]) [nM] | IS: increased sensitivity to the particular drug (MCF-7 cells [1]; [6]) [× IS] | IS: increased sensitivity to the particular drug (MCF-7 cells [1]; [7]) [× IS] | fold lower viability to drug treatment as compared to control cells (MCF-7 cells [1]) [fold] | IS: increased sensitivity to the particular drug [2] [× IS] | EC50 (MCF-7 cells [3]; MCF7 cells transfected with calumenin-directed siRNA (table: vector expressing calumenin-encoding RNA), read-out: EC50, Calumenin) [nM] | EC50 (MCF-7 cells [3]; mock vector transfected MCF7 cells, read-out: EC50, Control) [nM] | EC50 (MCF-7 cells [3]; [9]) [nM] | IS: increased sensitivity to the particular drug [4] [× IS] | fold more sensitive to drug (MCF-7 cells [1]) | sensitivity of calumenin silenced MCF-7 cells to drug (MCF-7 cells [5]) | cell survival, calumenin-directed siRNA and drug treatment as compared to drug treatment alone (MCF-7 cells [5]) | more sensitive to drug than cells transfected with control siRNA (MCF-7 cells [5]; [10]) [%] | more sensitive to drug than cells transfected with control siRNA (MCF-7 cells [5]; calumenin-directed siRNA transfected MCF-7, IC10 drug treatment level) [%] | IC10 (MCF-7 cells [1]) [nM] | more sensitive to drug than cells transfected with control siRNA (MCF-7 cells [5]; calumenin depleted MCF-7, IC90 drug treatment level) [%]
N.N.[Cl][Pt][Cl] [Cisplatin] | – | – | 8.5 | 8.5 | 9 | 3.3 | 2240 | 19100 | – | – | – | – | – | – | – | – | –
CC(=O)O[C@@]12CO[C@@H]1C[C@H](O)[C@@]1(C)C(=O)[C@H](O)C3=C(C)[C@@H](OC(=O)[C@H](O)[C@@H](NC(=O)OC(C)(C)C)c4ccccc4)C[C@@](O)([C@@H](OC(=O)c4ccccc4)[C@H]21)C3(C)C [Docetaxel] | 0.00463 | – | 2.1 | – | – | – | – | – | 0.00976 | – | – | – | – | – | – | – | –
COc1cccc2c1C(=O)c1c(O)c3c(c(O)c1C2=O)C[C@@](O)(C(=O)CO)C[C@@H]3O[C@H]1C[C@H](N)[C@H](O)[C@H](C)O1 [Doxorubicin] | 27.4 | – | 1.8 | 1.8 | – | 1.6 | – | – | 50 | 2.4 | two | – | – | – | – | – | –
O=C1c2c(O)ccc(O)c2C(=O)c2c(NCCNCCO)ccc(NCCNCCO)c21 [Mitoxantrone] | 1.38 | – | 4.4 | 4.4 | – | 1.6 | – | – | 6.04 | 6 | four | – | – | – | – | – | –
CC[C@]1(O)C[C@@H]2CN(CCc3c([nH]c4ccccc34)[C@@](C(=O)OC)(c3cc4c(cc3OC)N(C)[C@H]3[C@@](O)(C(=O)OC)[C@H](OC(C)=O)[C@]5(CC)C=CCN6CC[C@]43[C@@H]65)C2)C1 [Vinblastine] | – | – | 656.9 | – | – | – | – | – | 0.00149 | – | – | – | – | – | – | – | –

Continued, in another order:

EC50 (MCF-7 cells [3]; [8]) [nM] | IC50 (MCF-7 cells [1]) [nM] | Structure (SMILES) | IS: increased sensitivity to the particular drug (MCF-7 cells [1]; [6]) [× IS] | IS: increased sensitivity to the particular drug (MCF-7 cells [1]; [7]) [× IS] | fold lower viability to drug treatment as compared to control cells (MCF-7 cells [1]) [fold] | IS: increased sensitivity to the particular drug [2] [× IS] | EC50 (MCF-7 cells [3]; MCF7 cells transfected with calumenin-directed siRNA (table: vector expressing calumenin-encoding RNA), read-out: EC50, Calumenin) [nM] | EC50 (MCF-7 cells [3]; mock vector transfected MCF7 cells, read-out: EC50, Control) [nM] | EC50 (MCF-7 cells [3]; [9]) [nM] | IS: increased sensitivity to the particular drug [4] [× IS] | fold more sensitive to drug (MCF-7 cells [1]) | sensitivity of calumenin silenced MCF-7 cells to drug (MCF-7 cells [5]) | cell survival, calumenin-directed siRNA and drug treatment as compared to drug treatment alone (MCF-7 cells [5]) | more sensitive to drug than cells transfected with control siRNA (MCF-7 cells [5]; [10]) [%] | more sensitive to drug than cells transfected with control siRNA (MCF-7 cells [5]; calumenin-directed siRNA transfected MCF-7, IC10 drug treatment level) [%] | IC10 (MCF-7 cells [1]) [nM] | more sensitive to drug than cells transfected with control siRNA (MCF-7 cells [5]; calumenin depleted MCF-7, IC90 drug treatment level) [%]
957 | – | COc1cc([C@@H]2c3cc4c(cc3[C@@H](O[C@@H]3O[C@@H]5CO[C@@H](C)O[C@H]5[C@H](O)[C@H]3O)[C@H]3COC(=O)[C@H]23)OCO4)cc(OC)c1O [Etoposide] | 1.3 | – | – | – | – | – | 1200 | – | – | – | – | – | – | – | –
– | 100 | CC(=O)O[C@H]1C(=O)[C@@]2(C)[C@H]([C@H](OC(=O)c3ccccc3)[C@]3(O)C[C@H](OC(=O)[C@H](O)[C@@H](NC(=O)c4ccccc4)c4ccccc4)C(C)=C1C3(C)C)[C@]1(OC(C)=O)CO[C@@H]1C[C@@H]2O [Taxol] | 4130.2 | >10 | – | 2.1 | – | – | – | 3.8 | – | substantial increase | significantly decreased | 50 | 30 | 1 | –
0.00274 | 0.25 | CC[C@]1(O)C[C@H]2CN(CCc3c([nH]c4ccccc34)[C@@](C(=O)OC)(c3cc4c(cc3OC)N(C=O)[C@H]3[C@@](O)(C(=O)OC)[C@H](OC(C)=O)[C@]5(CC)C=CCN6CC[C@]43[C@@H]65)C2)C1 [Vincristine] | 17.2 | 17 | 17 | 4 | – | – | 0.0471 | 3.8 | – | substantial increase | same results | 20 | – | 5000 | 33
